From patent publication US20190169218A1, “AMPHIPATHIC COMPOUND HAVING NOVEL PENTA-SACCHARIDE HYDROPHILIC GROUP AND USE THEREOF” (Industry-University Cooperation Foundation Hanyang …, priority 2016, published 2019)

Columns and labels:
[1] = molecular target: T1, human β2 adrenergic receptor (β2AR) (Homo sapiens, UniProt P07550); assay: bimane fluorescence spectrum of mBBr-β2AR solubilized in amphipathic compounds; details: 0.1 wt % compound
T1 construct: Flag; made in house
Protocol: The structural stability of monobromobimane-labeled β2ARs (mBBr-β2ARs) solubilized in PSAs and PSEs was evaluated in the presence of a high-affinity agonist BI (BI-167107).
Specifically, monobromobimane (mBBr)-labeled β2ARs (mainly labeled on Cys265) was used to measure changes in a fluorescence spectrum induced by a local structural change near transmembrane helix 6 (TM6) (see Yao, X. et al., Nat. Chem. Biol. 2006, 2, 417-422.). 0.5 μL of BI (agonist)-bound mBBr-β2ARs dissolved at a concentration of […] in 0.1 wt % DDM was diluted with 500 μL of a buffer solution containing 0.1 wt % of each of the novel amphipathic compounds (PSA-C11, PSE-C11 and PSE-C13). After incubation of the protein samples for 30 minutes, the spectrum of mBBr was measured and compared with the spectrum of mBBr-labeled receptors dissolved in 0.1 wt % DDM. The 370 nm excitation wavelength was used for bimane fluorescence, and the emission spectra were measured at 430 to 510 nm using a Spex FluoroMax-3 spectrometer (Jobin Yvon Inc.) at 0.5 nm s^−1 in 1-nm units, and the photon counting mode was set to a 4-nm emission bandwidth pass. mBBr-labeled β2ARs dissolved in DDM were used as a positive control group. Data is representative of three independent experiments.
The structural change and structural stability of mBBr-β2ARs by PSAs/PSEs and DDM according the presence or absence of a full agonist (isoproterenol, ISO) or the combination of ISO and a G-protein were measured. It is well known that a full agonist (e.g., BI) and the binding of a Gs-protein are simultaneously required for full activation of receptors (see Rasmussen, S. G. F. et al., Nature 2011, 469, 175-180.).
Specifically, G protein coupling experiments were performed using the following method. 0.5 μL of non-ligand mBBr-labeled receptors at a concentration of 50 μM was diluted with 500 μL of a buffer solution containing a 0.1 wt % amphipathic compound at room temperature for 15 minutes. After dilution, a dilution containing the receptors at a final concentration of 50 nM was obtained. 2 μM isoproterenol (ISO) was added to the diluted solution, and the solution was incubated for an additional 15 minutes. 250 nM Gs-protein was additionally added to the solution, and then the protein samples included in the solution were incubated at room temperature for an additional 20 minutes. The 370 nm excitation wavelength was used for bimane fluorescence, and the emission spectra were measured at 430 to 510 nm using a Spex FluoroMax-3 spectrometer (Jobin Yvon Inc.) at 0.5 nm s^−1 in 1-nm units, and the photon counting mode was set to a 4-nm emission bandwidth pass. The same experiment was repeated using 0.1 wt % DDM, which was used as a positive control. Data is representative of three independent experiments.

[2] = molecular target: T2, boron transporter (BOR1) BOR1-GFP fusion protein (Arabidopsis thaliana, UniProt Q8VYR7); assay: structural (thermal) stability of solubilized BOR1-GFP by fluorescence-based size exclusion chromatography (FSEC); details: for structural stability of solubilized BOR1-GFP after heating (RFU, FSEC): heated at 40° C. for 10 minutes, 1 wt % compound
T2 construct: made in house; host or cells: Saccharomyces cerevisiae FGY217
Protocol: The ability of PSAs or PSEs to stabilize the structure of boron transporter (BOR1) was measured in an aqueous solution. That is, the BOR1 protein solubilized in each amphipathic compound was denatured by heating, and then structural stability of BOR1 was measured using fluorescence-based size exclusion chromatography (FSEC).
Specifically, Arabidopsis thaliana-derived BOR1 was expressed in the form of a fusion protein having a GFP tag at the C-terminus in Saccharomyces cerevisiae FGY217 cells. The cells were grown in an URA-medium supplemented with 0.1% glucose. 2% galactose was added to the cell culture to induce protein expression and the cells were cultured at 20° C. for 18 hours (see Drew, D. et al., Nat. Protoc. 2008, 3, 784-798.). After culture, the cells were harvested and used to obtain the cell membranes (see Leung, J. et al., Protein Expr. Purif. 2010, 72, 139-146.). Membranes containing BOR1-GFP fusion proteins were diluted to a final total protein concentration of 2.8 mg/mL in PBS (pH7.4) supplemented with 1 wt % DDM, 1 wt % PSAs (PSA-C9, PSA-C10 or PSA-C11) or 1 wt % PSEs (PSE-C9, PSE-C11 or PSE-C13). The diluted samples were incubated at 4° C. for 1 hour with gentle shaking, and insoluble substances were removed by centrifugation at 14,000 g for 1 hour at 4° C. Supernatants containing the dissolved protein samples were incubated for 10 minutes at the specified temperature (35, 40, 45 or 50° C.), and strongly agglutinated proteins were removed by centrifugation at 14,000 g for 10 minutes at 4° C. 200 μL aliquots were taken from the supernatant and injected into a Superose 6 10/300 column equilibrated with 20 mM Tris-HCl (pH 7.5), 150 mM NaCl and 0.03% DDM. Each elution fraction was collected from a retention volume of 6.4 mL (i.e., after 6.4 mL of solution had passed), and added to a well of a clear bottom 96-well plate at a volume of 200 μL. GFP fluorescence generated in each fraction was measured using an excitation wavelength of 470 nm and an emission wavelength of 512 nm.

[3] = molecular target: T1, human β2 adrenergic receptor (β2AR); assay: negative staining electron microscopy (EM) of purified β2AR
Protocol: Electron microscopy (EM) analysis was performed on β2ARs solubilized in PSAs and PSEs.
Specifically, electron microscopy (EM) analysis was performed as follows. Samples were prepared using a conventional negative staining protocol (see Peisley, A. et al., G Protein-Coupled Receptors in Drug Discovery: Methods and Protocols, Methods in Molecular Biology, 1335, 29-38 (2015)). Briefly, 3 μL of β2ARs purified in DDM or the novel amphipathic compounds (PSA-C11, PSE-C11 and PSE-C13) was added into a glow-discharged carbon-coated grid by pipetting and stained with 1% (w/v) uranyl formate. Imaging was performed by operating a Morgagni 268 (D) transmission electron microscope (FEI Company) at 100 kV at room temperature. Images were recorded with an Orius SC200W CCD camera (Gatan Inc.) at a 30,416×magnification.

[4] = in the presence of agonist BI (BI-167107)
[5] = in the presence of full agonist isoproterenol (ISO)

T1 sequence (P07550 whole entry): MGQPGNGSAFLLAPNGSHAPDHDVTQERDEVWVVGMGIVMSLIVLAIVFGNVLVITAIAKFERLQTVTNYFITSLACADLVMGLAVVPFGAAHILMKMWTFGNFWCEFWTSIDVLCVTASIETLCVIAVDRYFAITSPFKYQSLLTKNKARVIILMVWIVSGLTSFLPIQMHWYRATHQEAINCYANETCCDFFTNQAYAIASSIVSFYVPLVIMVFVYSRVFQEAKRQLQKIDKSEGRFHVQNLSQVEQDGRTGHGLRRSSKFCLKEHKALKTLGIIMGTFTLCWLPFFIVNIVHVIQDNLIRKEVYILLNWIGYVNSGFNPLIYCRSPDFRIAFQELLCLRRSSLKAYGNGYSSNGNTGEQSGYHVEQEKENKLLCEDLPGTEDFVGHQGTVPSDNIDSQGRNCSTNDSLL

SMILES | bimane fluorescence spectrum of mBBr-β2AR [1, 4] | bimane fluorescence spectrum of mBBr-β2AR [1, 5] | state of solubilized BOR1-GFP after heating ([2]; 40 or 45° C. for 10 minutes) | structural stability of solubilized BOR1-GFP after heating (RFU, FSEC) [2] | agglutinated proteins in negative staining EM images of β2AR [3] | state of solubilized BOR1-GFP after heating ([2]; 35° C. for 10 minutes)
CCCCCCCCCCCOCC(COCCCCCCCCCCC)O[C@@H]1OC(CO[C@@H]2OC(CO)[C@@H](O)C(O)C2O)[C@@H](O[C@@H]2OC(CO)[C@@H](O)C(O)C2O)C(O[C@@H]2OC(CO)[C@@H](O)C(O)C2O)C1O[C@@H]1OC(CO)[C@@H](O)C(O)C1O (stereo partly shown) [PSE-C11] | very similar to that obtained from the receptors dissolved in DDM | spectra similar to the receptor solubilized by DDM | maintained monodispersibility | greatly improved compared to DDM | the agglutinated proteins were hardly observed | –
CCCCCCCCCCCC(CCCCCCCCCCC)CO[C@@H]1OC(CO[C@@H]2OC(CO)[C@@H](O)C(O)C2O)[C@@H](O[C@@H]2OC(CO)[C@@H](O)C(O)C2O)C(O[C@@H]2OC(CO)[C@@H](O)C(O)C2O)C1O[C@@H]1OC(CO)[C@@H](O)C(O)C1O (stereo partly shown) [PSA-C11] | very similar to that obtained from the receptors dissolved in DDM | spectra similar to the receptor solubilized by DDM | – | remarkably improved as compared to DDM and PSA-C9 | the agglutinated proteins were hardly observed | –
CCCCCCCCCCCCCOCC(COCCCCCCCCCCCCC)O[C@@H]1OC(CO[C@@H]2OC(CO)[C@@H](O)C(O)C2O)[C@@H](O[C@@H]2OC(CO)[C@@H](O)C(O)C2O)C(O[C@@H]2OC(CO)[C@@H](O)C(O)C2O)C1O[C@@H]1OC(CO)[C@@H](O)C(O)C1O (stereo partly shown) [PSE-C13] | somewhat different bimane fluorescence spectrum compared to the receptors dissolved in DDM | – | – | greatly improved compared to DDM | the amount of the agglutinated proteins was small | –
CCCCCCCCCCCCO[C@@H]1O[C@H](CO)[C@@H](O[C@H]2O[C@H](CO)[C@@H](O)[C@H](O)[C@H]2O)[C@H](O)[C@H]1O [DDM, n-dodecyl-β-D-maltopyranoside, reference compound] | – | – | complete denaturation/aggregation occurred | RFUs were relatively low due to denaturation after heating | many agglutinated proteins were observed | retained the original state thereof
